Patent US6790864B2, “Compositions and methods to prevent toxicity induced by nonsteroidal antiinflammatory drugs” (NitroMed, Inc., priority 1995, dated 2004)

Columns and labels:
gastric lesion [1] = assay: rat gastric lesion test, multiple dosing studies; format: in vivo, rats
Protocol: The rat gastric lesion test (Kitagawa et al., J. Pharmacol. Exp.Ther., 253:1133-1137, 1990; Al-Ghamdi et al., J. Int. Med. Res., 19: 2242, 1991) was used to evaluate the potential of compounds to produce gastric lesion. Male Sprague Dawley rats (Charles River Laboratories, Wilmington, Mass.) weighing 230-250 g were used for the experiments. The rats were housed with laboratory chow and water ad libitum prior to the study. The rats were fasted for 24-30 hours with free access to water and then dosed by oral gavage with vehicle or with drugs given at a volume of 0.5 mL/100 g. For the unmodified NSAIDs being given in combination with a nitric oxide adduct (NO-adduct), the NO-adduct was administered by oral gavage immediately prior to the administration of NSAID by oral gavage. […] For acute studies, rats were euthanized by CO2 eighteen hours after dosing and the stomachs were dissected. […] […] The stomachs were dissected along the greater curvature, washed with a directed stream of 0.9% saline and pinned open on a sylgard based petridish for examination of the hemorrhagic lesion. Gastric lesion score was expressed in mm and calculated by summing the length of each lesion.

[2] = system: phenylbenzoquinone-induced writhing; assay: phenylbenzoquinone-induced writhing test in mice (analgesic activity); format: in vivo; conditions: ratio of activity relative to the parent NSAID; oral gavage 1 hour prior to phenylbenzoquinone i.p.
Protocol: The phenylbenzoquinone-induced writhing test in mice was used to measure analgesic activity. The ability of the compounds to inhibit phenylbenzoquinone-induced writhing in mice was measured using the method of Siegmund et al., Proc. Soc. […] Male CD-1 mice (Charles River Laboratories, Wilmington, Mass.) weighing 20-25 g were fasted overnight. Vehicle or compounds were administered by oral gavage 1 hour prior to i.p. injection of 2 mg/kg of phenylbenzoquinone. In the case of a nitric oxide adduct being given in combination with a NSAID, the nitric oxide adduct was administered immediately before the NSAID. Five minutes after the i.p. injection of phenylbenzoquinone, the number of writhes in a 5 minute period was counted.

gastric lesion [3] = assay: rat gastric lesion test, acute (single dose); format: in vivo, rats
Protocol: The rat gastric lesion test (Kitagawa et al., J. Pharmacol. Exp.Ther., 253:1133-1137, 1990; Al-Ghamdi et al., J. Int. Med. Res., 19: 2242, 1991) was used to evaluate the potential of compounds to produce gastric lesion. Male Sprague Dawley rats (Charles River Laboratories, Wilmington, Mass.) weighing 230-250 g were used for the experiments. The rats were housed with laboratory chow and water ad libitum prior to the study. The rats were fasted for 24-30 hours with free access to water and then dosed by oral gavage with vehicle or with drugs given at a volume of 0.5 mL/100 g. For the unmodified NSAIDs being given in combination with a nitric oxide adduct (NO-adduct), the NO-adduct was administered by oral gavage immediately prior to the administration of NSAID by oral gavage. Food was withheld for 18 hours after the initial dosing. For acute studies, rats were euthanized by CO2 eighteen hours after dosing and the stomachs were dissected. For the multiple dosing studies, the results of which are in Table 3, food was given eighteen hours after the first dose and the rats were maintained on food and water ad libitum while receiving a single daily dose for the remainder of the experiment. […] The stomachs were dissected along the greater curvature, washed with a directed stream of 0.9% saline and pinned open on a sylgard based petridish for examination of the hemorrhagic lesion. Gastric lesion score was expressed in mm and calculated by summing the length of each lesion.

carrageenin paw edema = assay: rat paw edema test (antiinflammatory activity); format: in vivo, rats; conditions: ratio of activity relative to the parent NSAID; oral gavage one hour prior to carrageenin, paw volume after three hours
Protocol: The rat paw edema test was used to measure antiinflammatory activity. The rat paw edema test was performed according to the method of Winter et al., Proc. Soc. […] Male Sprague-Dawley rats (250-275 g) were fasted overnight and dosed by oral gavage with vehicle or suspensions of compound one hour prior to the subplantar injection of 50 μl of 1% suspension of carrageenin. Three hours later, the paw volume was measured and compared with the initial volume measured immediately after carrageenin injection.

[4] = male, Sprague Dawley, rat, in vivo, po, 18 h
[5] = ratio of activity relative to the parent NSAID, oral gavage, fasted rats
[6] = 7 days, fasted 24-30 hours before and 18 hours after first dosing, Ibuprofen 30, Example 11 50, Example 12 45 mg/kg

| Molecule | Relative Gastric Lesion Activity (gastric lesion [1]; 4 days, fasted 24-30 hours before and 4 hours after first dosing, Ketoprofen 10, Example 4 14, Example 6 15 mg/kg) | Relative Activity Analgesia [2] | Relative Activity Gastric Lesion (gastric lesion [3]; [4]) | Relative Activity Antiinflammation (carrageenin paw edema) | Relative Activity Gastric Lesion (gastric lesion [3]; rat, in vivo, po) | Relative Activity Gastric Lesion (gastric lesion [3]; [5]) | Relative Gastric Lesion Activity (gastric lesion [1]; [6]) |
| --- | --- | --- | --- | --- | --- | --- | --- |
| CC(C(=O)OCCC(C)(C)SN=O)c1cccc(C(=O)c2ccccc2)c1 (stereo not drawn) [Example 6, 3-S-Nitroso-3-methyl-1-(3-benzoyl-α-methylbenzeneacetic Acid) Butyl Ester] | ++ (21-40% of the gastric toxcity induced by the parent NSAID = ++) | 1 |  |  |  |  |  |
| CC(C(=O)OCc1ccc(CON=O)cc1)c1cccc(C(=O)c2ccccc2)c1 (stereo not drawn) [Example 16, 4O-Nitroso-hydroxymethylene-(1-(3-benzoyl-α-methylbenzeneacetic Acid)) Benzyl Ester] |  | 1.1 |  |  |  |  |  |
| COc1ccc2c(c1)c(CC(=O)O)c(C)n2C(=O)c1ccc(Cl)cc1 [Indomethacin, reference compound] |  | 1 | 1 | 1 |  |  |  |
| COc1ccc2c(c1)c(CC(=O)OCCCCON=O)c(C)n2C(=O)c1ccc(Cl)cc1 [Example 8] |  | 1 |  | 1 | 0.08 |  |  |
| CC(C)Cc1ccc(C(C)C(=O)OCCC(C)(C)SN=O)cc1 (stereo not drawn) [Example 11, 3-S-Nitroso-3-methyl-1-(α-methyl-4-(2-methylpropyl)benzeneacetic Acid) Butyl Ester] |  |  |  | 1 |  | <0.05 | + (1-20% of the gastric toxcity induced by the parent NSAID = +) |
| CC(C(=O)OCCCCON=O)c1ccc(-c2ccccc2)c(F)c1 (stereo not drawn) [Example 13, 4-O-Nitroso-1-(2-Fluoro-α-methyl-biphenylacetic Acid) Butyl Ester] |  | 0.31 |  | 1.83 | 0.5 |  |  |
| 4-O-Nitroso-4-methyl-1-(3-benzoyl-α-methylbenzeneacetic Acid) Pentyl Ester [Example 5] |  | 1.1 |  |  |  |  |  |
| CC(C(=O)OCCCCON=O)c1cccc(C(=O)c2ccccc2)c1 (stereo not drawn) [Example 4, 4-O-Nitroso-1-(3-benzoyl-α-methylbenzeneacetic Acid) Butyl Ester] |  | 1.6 |  | 0.58 | 0.03 |  |  |
| CN1C(C(=O)Nc2ccccn2)=C(O)c2ccccc2S1(=O)=O [Piroxicam, reference compound] |  | 1 | 1 |  |  |  |  |
| 4-O-Nitroso-1-(α-methyl-4-(2-methylpropyl)benzeneacetic Acid) Butyl Ester [Example 12] |  |  |  | 1 |  | <0.03 | + (1-20% of the gastric toxcity induced by the parent NSAID = +) |
| CC(C(=O)O)c1ccc(-c2ccccc2)c(F)c1 (stereo not drawn) [Flurbiprofen, reference compound] |  | 1 | 1 | 1 |  |  |  |
